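Compound exposure: 48 hours, 5 concentrations, 96-well plates. GI50: concentration for 50% inhibition of growth. Definition used: TGI = concentration required for complete inhibition of growth.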
How the values were obtained:
Test in all cases: NCI-60 cell line screen, 48 h
HCT-15 colon = test system: HCT-15 colon
HCT-116 colon = test system: HCT-116 colon
OVCAR-3 ovarian = test system: OVCAR-3 ovarian
OVCAR-4 ovarian = test system: OVCAR-4 ovarian
TK-10 renal = test system: TK-10 renal
MALME-3M melanoma = test system: MALME-3M melanoma
RXF 393 renal = test system: RXF 393 renal
A549 NSCLC = test system: A549 NSCLC
SNB-75 CNS = test system: SNB-75 CNS
NCI/ADR-RES ovarian = test system: NCI/ADR-RES ovarian

Compound	TGI (HCT-15 colon)	TGI (HCT-116 colon)	TGI (OVCAR-3 ovarian)	TGI (OVCAR-4 ovarian)	TGI (TK-10 renal)	TGI (MALME-3M melanoma)	TGI (RXF 393 renal)	TGI (A549 NSCLC)	TGI (SNB-75 CNS)	GI50 (HCT-15 colon)	GI50 (HCT-116 colon)	GI50 (OVCAR-3 ovarian)	GI50 (OVCAR-4 ovarian)	GI50 (TK-10 renal)	GI50 (NCI/ADR-RES ovarian)	TGI (NCI/ADR-RES ovarian)	GI50 (RXF 393 renal)	GI50 (A549 NSCLC)	GI50 (SNB-75 CNS)	GI50 (MALME-3M melanoma)
Cc1ccc(/C=C/C(=O)c2ccc([N+](=O)[O-])cc2)cc1	> 100 µM	> 100 µM	> 100 µM	> 100 µM	> 100 µM	> 100 µM	> 100 µM	> 100 µM	> 100 µM	–	–	–	–	–	–	–	–	–	–	–
C=C1CCC2C(C)(CO)C(O)CCC2(C)C1C/C=C1/CCOC1=O (stereo unspecified)	> 100 µM	> 100 µM	> 100 µM	> 100 µM	> 100 µM	> 100 µM	–	> 100 µM	> 100 µM	–	–	–	–	–	–	–	–	–	–	–
Cc1cc(NCc2cc(Nc3ccnc4cc(Cl)ccc34)ccc2F)nc(N2CCSCC2)n1	3.54 µM	2.46 µM	2.93 µM	5.51 µM	4.68 µM	–	3.35 µM	21.8 µM	2.9 µM	1.54 µM	1.18 µM	1.59 µM	1.82 µM	1.92 µM	1.55 µM	4.02 µM	1.52 µM	2.92 µM	1.32 µM	–
COc1ccc(N=Nc2c(-c3ccccc3)nn(C(=O)CC(=O)Nc3ccccc3Cl)c2-c2ccccc2)cc1	> 100 µM	> 100 µM	> 100 µM	> 100 µM	> 100 µM	> 100 µM	> 100 µM	> 100 µM	> 100 µM	–	–	–	–	–	–	–	–	–	–	–
COc1ccc(/C=C\c2cc(OC)c(OC)c(OC)c2)cc1OCC(=O)Nc1nc2ccccc2s1	> 100 µM	> 100 µM	–	> 100 µM	–	> 85.3 µM	79.9 µM	> 100 µM	> 100 µM	0.0519 µM	0.0439 µM	–	0.476 µM	–	–	–	0.0503 µM	0.31 µM	0.109 µM	0.338 µM
Cc1cccc(C(C)C)c1NC(=O)CCl	> 100 µM	> 100 µM	59.9 µM	76.6 µM	–	> 100 µM	75.5 µM	> 100 µM	> 100 µM	–	–	–	–	–	–	–	–	–	–	–
CC(C)CN1CC(C)C(=O)NC1=O (stereo unspecified)	–	–	–	> 100 µM	> 100 µM	> 100 µM	> 100 µM	> 100 µM	–	–	–	–	–	–	–	–	–	–	–	–
CN(C)C(=S)/N=c1\ss/c(=N\C(=S)N(C)C)n1Cc1ccco1	> 100 µM	> 100 µM	–	> 100 µM	> 100 µM	> 100 µM	> 100 µM	> 100 µM	> 100 µM	–	–	–	–	–	–	–	–	–	–	–
COc1ccc(OC(C)C(=O)O)c2c1CCCC2=O (stereo unspecified)	> 100 µM	> 100 µM	> 100 µM	> 100 µM	> 100 µM	> 100 µM	> 100 µM	> 100 µM	> 100 µM	–	–	–	–	–	–	–	–	–	–	–
CC(=O)Nc1ccc(-c2csc(Nc3cccc(-c4csc(-c5ccccc5)n4)c3)n2)cc1	> 50 µM	> 50 µM	> 50 µM	–	> 50 µM	–	39.6 µM	> 50 µM	–	10.3 µM	18.4 µM	20.4 µM	–	19.7 µM	17.5 µM	> 50 µM	13.7 µM	15.3 µM	–	–
COc1ccc(-c2nc(-c3ccccn3)c(-c3ccccn3)n2CC(C)C)cc1OC1CCCC1	> 165 µM	> 165 µM	114 µM	126 µM	–	–	–	65.1 µM	123 µM	6.72 µM	7.35 µM	30.3 µM	32.3 µM	–	6.96 µM	> 165 µM	–	9.02 µM	24 µM	–

— PubChem BioAssay (NCI)
